These results are taken from ChEMBL document CHEMBL1136301, “1,2,5,6-tetra-O-benzyl-D-mannitol derivatives as novel HIV protease inhibitors” (Bioorg Med Chem Lett, 2003).

Some results are limits rather than exact numbers.

This test concerns the target Human immunodeficiency virus type 1 protease (Human immunodeficiency virus 1, UniProt Q72874). Kind of test: Inhibitory activity against HIV-1 protease.
`OC(C(COCc1cccc(F)c1)OCc1ccccc1)C(O)C(COCc1cccc(F)c1)OCc1ccccc1` (stereo not drawn): the midpoint of inhibition, the IC50, lay at 1.5 µM.
`OC(C(COCc1ccc(F)cc1)OCc1ccc(F)cc1)C(O)C(COCc1ccc(F)cc1)OCc1ccc(F)cc1` (stereo not drawn): the half-inhibitory concentration (IC50) (in general, the concentration at which inhibition is half-maximal) stood at 1.6 µM.
Take `O=C(O)c1ccc(COCC(OCc2ccccc2)C(O)C(O)C(COCc2ccc(C(=O)O)cc2)OCc2ccccc2)cc1` (stereo not drawn): half-maximal inhibition (IC50) required 5 µM.
Regarding `OC(C(COCc1c(F)cccc1F)OCc1ccccc1)C(O)C(COCc1c(F)cccc1F)OCc1ccccc1` (stereo not drawn), the IC50 was found to be 0.33 µM.
In turn, `O=C(O)c1ccc(COC(COCc2ccccc2)C(O)C(O)C(COCc2ccccc2)OCc2ccc(C(=O)O)cc2)cc1` (stereo not drawn) came in with an IC50 of 26 µM.
As for `O[C@@H]([C@H](O)[C@@H](COCc1ccccc1)OCc1ccccc1)[C@@H](COCc1ccccc1)OCc1ccccc1`, the midpoint of inhibition, the IC50, lay at 2.4 µM.
Turning to `Cc1ccccc1COC(COCc1ccccc1F)C(O)C(O)C(COCc1ccccc1F)OCc1ccccc1C` (stereo not drawn), the IC50 is 0.8 µM.
With `O[C@H]([C@@H](O)[C@H](COCc1ccccc1)OCc1ccccc1)[C@H](COCc1ccccc1)OCc1ccccc1` the figure was > 50 µM.
As for `N#Cc1ccc(COCC(OCc2ccccc2)C(O)C(O)C(COCc2ccc(C#N)cc2)OCc2ccccc2)cc1` (stereo not drawn), half-maximal inhibition (IC50) required 4.3 µM.
`OC(C(COCc1ccc(C(F)(F)F)cc1)OCc1ccccc1)C(O)C(COCc1ccc(C(F)(F)F)cc1)OCc1ccccc1` (stereo not drawn) returned an IC50 of 5 µM.
Compound `OC(C(COCc1ccccc1)OCc1ccc(F)cc1)C(O)C(COCc1ccccc1)OCc1ccc(F)cc1` (stereo not drawn) displayed a 50% inhibitory concentration (IC50) of 0.7 µM.
With `OC(C(COCc1ccccc1)OCc1ccc(Br)cc1)C(O)C(COCc1ccccc1)OCc1ccc(Br)cc1` (stereo not drawn) the figure was 2.1 µM.
The compound `OC(C(COCc1ccc(F)cc1)OCc1ccccc1)C(O)C(COCc1ccc(F)cc1)OCc1ccccc1` (stereo not drawn) yielded a concentration for half-maximal inhibition (IC50) of 2.5 µM.
With `O[C@@H](C[C@@H](COCc1ccccc1)OCc1ccccc1)[C@@H](COCc1ccccc1)OCc1ccccc1`, the IC50 is > 50 µM.
For the compound `Cc1ccc(COCC(OCc2ccccc2)C(O)C(O)C(COCc2ccc(C)cc2)OCc2ccccc2)cc1` (stereo not drawn), the IC50 is 3 µM.
Compound `Cc1ccc(COC(COCc2ccccc2)C(O)C(O)C(COCc2ccccc2)OCc2ccc(C)cc2)cc1` (stereo not drawn) gave an IC50 of 3.7 µM. This IC50 and that of the compound before are within 1.5-fold of each other.
On to `Cc1ccc(COCC(OCc2ccc(C)cc2)C(O)C(O)C(COCc2ccc(C)cc2)OCc2ccc(C)cc2)cc1` (stereo not drawn), for which the half-maximal inhibitory concentration (IC50) was found to be 7 µM.
Turning to `O[C@@H]([C@H](O)[C@@H](COc1ccccc1)OCc1ccccc1)[C@@H](COc1ccccc1)OCc1ccccc1`, the IC50 is > 50 µM.
`OC(C(COCc1ccccc1)OCc1ccc(F)cc1F)C(O)C(COCc1ccccc1)OCc1ccc(F)cc1F` (stereo not drawn) yielded a half-maximal inhibitory concentration (IC50) of 2.6 µM. This counts as single-digit micromolar.
With `OC(C(COCc1ccccc1F)OCc1ccc(F)cc1)C(O)C(COCc1ccccc1F)OCc1ccc(F)cc1` (stereo not drawn), the concentration for half-maximal inhibition (IC50) came to 0.2 µM.
Next, `OCc1ccc(COC(COCc2ccccc2)C(O)C(O)C(COCc2ccccc2)OCc2ccc(CO)cc2)cc1` (stereo not drawn): 10 µM; `OC(C(COCc1ccc(C(F)(F)F)cc1)OCc1ccc(C(F)(F)F)cc1)C(O)C(COCc1ccc(C(F)(F)F)cc1)OCc1ccc(C(F)(F)F)cc1` (stereo not drawn): 6 µM; `O[C@@H]([C@H](OCc1ccccc1)[C@H](COCc1ccccc1)OCc1ccccc1)[C@@H](COCc1ccccc1)OCc1ccccc1`: > 50 µM.
On to `O[C@H]([C@H](O)[C@@H](COCc1ccccc1)OCc1ccccc1)[C@@H](COCc1ccccc1)OCc1ccccc1`, for which the IC50 is > 50 µM.
For the compound `O[C@H]([C@H](O)[C@H](COCc1ccccc1)OCc1ccccc1)[C@@H](COCc1ccccc1)OCc1ccccc1`, the half-maximal inhibitory concentration (IC50) is > 50 µM.
As to `OC(C(COCc1ccccc1)OCc1ccc(C(F)(F)F)cc1)C(O)C(COCc1ccccc1)OCc1ccc(C(F)(F)F)cc1` (stereo not drawn), inhibition was half-maximal at 10 µM (IC50).
Regarding `OCc1ccc(COCC(OCc2ccccc2)C(O)C(O)C(COCc2ccc(CO)cc2)OCc2ccccc2)cc1` (stereo not drawn), the half-inhibitory concentration (IC50) was determined as 1.2 µM.
`N#Cc1ccc(COC(COCc2ccccc2)C(O)C(O)C(COCc2ccccc2)OCc2ccc(C#N)cc2)cc1` (stereo not drawn): half-maximal inhibition (IC50) required 5.4 µM.
`OC(C(COCc1ccccc1)OCc1c(F)cccc1F)C(O)C(COCc1ccccc1)OCc1c(F)cccc1F` (stereo not drawn) came in with an IC50 of 6.4 µM.
On to `OC(C(COCc1ccccc1)OCc1ccccc1F)C(O)C(COCc1ccccc1)OCc1ccccc1F` (stereo not drawn), for which the concentration for half-maximal inhibition (IC50) is 3.7 µM. Compared with the last compound, the IC50 is about 1.7-fold lower.
Compound `OC(C(COCc1c(F)cccc1F)OCc1ccc(F)cc1)C(O)C(COCc1c(F)cccc1F)OCc1ccc(F)cc1` (stereo not drawn) displayed an IC50 of 0.33 µM.
In turn, `OC(C(COCc1ccccc1)OCc1cccc(F)c1)C(O)C(COCc1ccccc1)OCc1cccc(F)c1` (stereo not drawn) returned a half-maximal inhibitory concentration (IC50) of 1.8 µM. Against the preceding compound, the IC50 is about 5.5-fold higher.
`NC(=O)c1ccc(COC(COCc2ccccc2)C(O)C(O)C(COCc2ccccc2)OCc2ccc(C(N)=O)cc2)cc1` (stereo not drawn): the concentration for half-maximal inhibition (IC50) was found to be 20 µM.
`NCc1ccc(COC(COCc2ccccc2)C(O)C(O)C(COCc2ccccc2)OCc2ccc(CN)cc2)cc1` (stereo not drawn) displayed an IC50 of 27 µM. This IC50 and that of the compound before are within 1.5-fold of each other.
For the compound `OC(C(COCc1ccc(F)cc1F)OCc1ccccc1)C(O)C(COCc1ccc(F)cc1F)OCc1ccccc1` (stereo not drawn), the IC50 amounted to 4.2 µM.
As to `OC(C(COCc1ccc(Cl)cc1)OCc1ccccc1)C(O)C(COCc1ccc(Cl)cc1)OCc1ccccc1` (stereo not drawn), the IC50 was determined as 5.2 µM. This IC50 and that of the compound before are within 1.5-fold of each other.
The compound `OC(C(COCc1ccccc1)OCc1ccc(Cl)cc1)C(O)C(COCc1ccccc1)OCc1ccc(Cl)cc1` (stereo not drawn) came in with an IC50 of 2 µM.
With `COC(=O)c1ccc(COC(COCc2ccccc2)C(O)C(O)C(COCc2ccccc2)OCc2ccc(C(=O)OC)cc2)cc1` (stereo not drawn) the figure was 8.4 µM.
As for `O[C@@H]([C@H](O)[C@@H](Cc1ccccc1)OCc1ccccc1)[C@@H](Cc1ccccc1)OCc1ccccc1`, the half-maximal inhibitory concentration (IC50) is > 50 µM.
As for `COC(=O)c1ccc(COCC(OCc2ccccc2)C(O)C(O)C(COCc2ccc(C(=O)OC)cc2)OCc2ccccc2)cc1` (stereo not drawn), half-maximal inhibition (IC50) was put at 2 µM.
Next, `OC(C(COCc1ccccc1F)OCc1ccccc1)C(O)C(COCc1ccccc1F)OCc1ccccc1` (stereo not drawn): 0.6 µM.
`OC(C(COCc1ccc(Br)cc1)OCc1ccccc1)C(O)C(COCc1ccc(Br)cc1)OCc1ccccc1` (stereo not drawn) gave a half-maximal inhibitory concentration (IC50) of 6 µM.
Turning to `N#Cc1ccc(COCC(OCc2ccc(C#N)cc2)C(O)C(O)C(COCc2ccc(C#N)cc2)OCc2ccc(C#N)cc2)cc1` (stereo not drawn), the half-inhibitory concentration (IC50) is 3.1 µM.
